Patent US9980943B2, “Methods of treating muscular dystrophy” (BOARD OF REGENTS OF THE NEVADA SYSTEM OF HIGHER EDUCATION, …, priority 2013, dated 2018)
Where two headings read alike, the source gives them in different places.

Columns and labels:
Type in all cases: cell-based, mouse
[1] = test system: α7 integrin (LacZ reporter in α7+/LacZ myotubes); assay: Myotube α7 integrin FDG assay (Burkin assay in myotubes, 96-well); conditions: myotubes; for fold induction at 0.5 µM / fold induction at 1 µM / fold induction at 5 µM / fold induction at 10 µM / fold induction at 20 µM / fold induction at 40 µM: Mus musculus, Myotube
[2] = test system: β-galactosidase in CMV-LacZ C2C12 myotubes; assay: CMV-LacZ secondary screen in C2C12 myotubes (β-Gal stabilizing assay); conditions: for CMV-LACZ in Myotubes (β-galactosidase activity relative to DMSO): CMV-LacZ C2C12 myotubes, 96-well format
How it was run: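 CMV-LacZ C2C12 line (clonal, FDG-screened); myoblasts/myotubes dosed 0.5–40 μM (0.5, 1, 5, 10, 20, 40 μM); n=2 per point; β-gal stabilization read-out.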

[3] = test system: α7 integrin (LacZ reporter in α7βgal+/− myoblasts); assay: Myoblast α7+/LacZ integrin FDG assay (Burkin assay in myoblasts, 96-well); conditions: α7+/LacZ myoblasts, 96-well; for fold induction at 0.5 µM / fold induction at 1 µM / fold induction at 5 µM / fold induction at 10 µM / fold induction at 20 µM / fold induction at 40 µM: Mus musculus, Myoblast, 48 h
[4] = 5 uM, C2C12 CMV-LacZ myotubes, fold relative to DMSO
[5] = 10 uM, C2C12 CMV-LacZ myotubes, fold relative to DMSO
[6] = 20 uM, C2C12 CMV-LacZ myotubes, fold relative to DMSO
[7] = 40 uM, C2C12 CMV-LacZ myotubes, fold relative to DMSO

Row | Compound | CMV-LACZ in Myotubes (β-galactosidase activity relative to DMSO) ([2]; 5 uM) | CMV-LACZ in Myotubes (β-galactosidase activity relative to DMSO) ([2]; 10 uM) | CMV-LACZ in Myotubes (β-galactosidase activity relative to DMSO) ([2]; 20 uM) | CMV-LACZ in Myotubes (β-galactosidase activity relative to DMSO) ([2]; 40 uM) | Burkin Assay in Myotubes (signal relative to DMSO) ([1]; 0.5 uM) | Burkin Assay in Myotubes (signal relative to DMSO) ([1]; 1 uM) | Burkin Assay in Myotubes (signal relative to DMSO) ([1]; 5 uM) | Burkin Assay in Myotubes (signal relative to DMSO) ([1]; 10 uM) | Burkin Assay in Myotubes (signal relative to DMSO) ([1]; 20 uM) | Burkin Assay in Myotubes (signal relative to DMSO) ([1]; 40 uM) | Burkin Assay in Myoblasts, value relative to DMSO ([3]; 0.5 uM) | Burkin Assay in Myoblasts, value relative to DMSO ([3]; 1 uM) | Burkin Assay in Myoblasts, value relative to DMSO ([3]; 5 uM) | Burkin Assay in Myoblasts, value relative to DMSO ([3]; 10 uM) | Burkin Assay in Myoblasts, value relative to DMSO ([3]; 20 uM) | Burkin Assay in Myoblasts, value relative to DMSO ([3]; 40 uM) | further results
1 | CCS(=O)(=O)N1CCN(c2ccc([N+](=O)[O-])c(NCC3CCCO3)c2)CC1 (stereo not shown) [MLS000693370-01] | 0.9783 | 0.9621 | 0.9947 | 1.1136 | – | – | – | – | – | – | – | – | – | – | – | – | fold induction at 0.5 µM ([1]; 0.5 uM, read-out: Burkin Assay in Myotubes (signal relative to DMSO)): 1.11; fold induction at 1 µM ([1]; 1 uM, read-out: Burkin Assay in Myotubes (signal relative to DMSO)): 1.13; fold induction at 5 µM ([1]; 5 uM, read-out: Burkin Assay in Myotubes (signal relative to DMSO)): 1.16; fold induction at 10 µM ([1]; 10 uM, read-out: Burkin Assay in Myotubes (signal relative to DMSO)): 1.28; fold induction at 20 µM ([1]; 20 uM, read-out: Burkin Assay in Myotubes (signal relative to DMSO)): 1.15; fold induction at 40 µM ([1]; 40 uM, read-out: Burkin Assay in Myotubes (signal relative to DMSO)): 1.25; fold induction at 0.5 µM ([3]; 0.5 uM, read-out: Burkin Assay in Myoblasts, value relative to DMSO): 0.864; fold induction at 1 µM ([3]; 1 uM, read-out: Burkin Assay in Myoblasts, value relative to DMSO): 0.8; fold induction at 5 µM ([3]; 5 uM, read-out: Burkin Assay in Myoblasts, value relative to DMSO): 0.887; fold induction at 10 µM ([3]; 10 uM, read-out: Burkin Assay in Myoblasts, value relative to DMSO): 1.06; fold induction at 20 µM ([3]; 20 uM, read-out: Burkin Assay in Myoblasts, value relative to DMSO): 0.951; fold induction at 40 µM ([3]; 40 uM, read-out: Burkin Assay in Myoblasts, value relative to DMSO): 0.937
2 | C=CCN(CC=C)C(=O)c1ccc(OC2CCN(S(=O)(=O)N(C)C)CC2)cc1 [MLS000693729-01] | – | – | – | – | 0.8219 | 0.7707 | 1.119 | 1.144 | 0.9682 | 1.056 | 0.9069 | 0.7902 | 0.8647 | 0.9088 | 0.9136 | 0.9194 | CMV-LACZ in Myotubes, signal relative to DMSO [2, 4]: 0.9722; CMV-LACZ in Myotubes, signal relative to DMSO [2, 5]: 1.057; CMV-LACZ in Myotubes, signal relative to DMSO [2, 6]: 0.9031; CMV-LACZ in Myotubes, signal relative to DMSO [2, 7]: 0.879
3 | Cc1cc(NC(=O)CCC(=O)N(Cc2cccnc2)C(C(=O)NC(C)(C)C)c2ccccc2Cl)no1 (stereo not shown) [MLS001220803-01] | 1.115 | 1.064 | 1.091 | 1.05 | 0.9345 | 0.9703 | 1.18 | 1.075 | 1.0147 | 0.9622 | 0.9688 | 1.0343 | 0.8878 | 0.9511 | 0.9503 | 0.9906 | –
4 | NC(=O)c1nsc(C(=O)N(c2ccccc2)C(C(=O)NCc2ccc(F)cc2)c2ccc(O)cc2)c1N (stereo not shown) [MLS001219621-01] | 0.9491 | 1.063 | 1.132 | 1.29 | 0.9394 | 0.8603 | 0.8883 | 0.8616 | 0.648 | 0.4537 | 0.8642 | 0.8063 | 0.7249 | 0.7542 | 0.7884 | 0.5423 | –
5 | COc1ccc(Nc2ncnc3ccc(C)cc23)cc1 [MLS001212498-01] | – | – | – | – | – | – | – | – | – | – | – | – | – | – | – | – | fold induction at 0.5 µM ([1]; 0.5 uM, read-out: Burkin Assay in Myotubes, α7 integrin LacZ reporter signal relative to DMSO): 0.941; fold induction at 1 µM ([1]; 1 uM, read-out: Burkin Assay in Myotubes, α7 integrin LacZ reporter signal relative to DMSO): 1.12; fold induction at 5 µM ([1]; 5 uM, read-out: Burkin Assay in Myotubes, α7 integrin LacZ reporter signal relative to DMSO): 1.11; fold induction at 10 µM ([1]; 10 uM, read-out: Burkin Assay in Myotubes, α7 integrin LacZ reporter signal relative to DMSO): 1.34; fold induction at 20 µM ([1]; 20 uM, read-out: Burkin Assay in Myotubes, α7 integrin LacZ reporter signal relative to DMSO): 1.16; fold induction at 40 µM ([1]; 40 uM, read-out: Burkin Assay in Myotubes, α7 integrin LacZ reporter signal relative to DMSO): 1.16; fold induction at 5 µM ([2]; Mus musculus, C2C12, read-out: CMV-LACZ in Myotubes, signal relative to DMSO, 5 uM, C2C12 CMV-LacZ myotubes, fold relative to DMSO): 0.85; fold induction at 10 µM ([2]; Mus musculus, C2C12, read-out: CMV-LACZ in Myotubes, signal relative to DMSO, 10 uM, C2C12 CMV-LacZ myotubes, fold relative to DMSO): 0.784; fold induction at 20 µM ([2]; Mus musculus, C2C12, read-out: CMV-LACZ in Myotubes, signal relative to DMSO, 20 uM, C2C12 CMV-LacZ myotubes, fold relative to DMSO): 0.749; fold induction at 40 µM ([2]; Mus musculus, C2C12, read-out: CMV-LACZ in Myotubes, signal relative to DMSO, 40 uM, C2C12 CMV-LacZ myotubes, fold relative to DMSO): 0.848; fold induction at 0.5 µM ([3]; 0.5 uM, read-out: Burkin Assay in Myoblasts, signal relative to DMSO): 1.05; fold induction at 1 µM ([3]; 1 uM, read-out: Burkin Assay in Myoblasts, signal relative to DMSO): 1.2; fold induction at 5 µM ([3]; 5 uM, read-out: Burkin Assay in Myoblasts, signal relative to DMSO): 1.18; fold induction at 10 µM ([3]; 10 uM, read-out: Burkin Assay in Myoblasts, signal relative to DMSO): 1.31; fold induction at 20 µM ([3]; 20 uM, read-out: Burkin Assay in Myoblasts, signal relative to DMSO): 1.29; fold induction at 40 µM ([3]; 40 uM, read-out: Burkin Assay in Myoblasts, signal relative to DMSO): 1.4
6 | COc1ccc(CNC(=O)COC(=O)CCc2c[nH]c3ccccc23)cc1 [MLS001033202-01] | – | – | – | – | – | – | – | – | – | – | – | – | – | – | – | – | Burkin Assay in Myotubes, α7 integrin LacZ reporter signal relative to DMSO ([1]; 0.5 uM): 1.057; Burkin Assay in Myotubes, α7 integrin LacZ reporter signal relative to DMSO ([1]; 1 uM): 1.019; Burkin Assay in Myotubes, α7 integrin LacZ reporter signal relative to DMSO ([1]; 5 uM): 1.042; Burkin Assay in Myotubes, α7 integrin LacZ reporter signal relative to DMSO ([1]; 10 uM): 1.0906; Burkin Assay in Myotubes, α7 integrin LacZ reporter signal relative to DMSO ([1]; 20 uM): 1.051; Burkin Assay in Myotubes, α7 integrin LacZ reporter signal relative to DMSO ([1]; 40 uM): 0.986; CMV-LACZ in Myotubes, signal relative to DMSO [2, 4]: 0.9658; CMV-LACZ in Myotubes, signal relative to DMSO [2, 5]: 0.9933; CMV-LACZ in Myotubes, signal relative to DMSO [2, 6]: 0.8214; CMV-LACZ in Myotubes, signal relative to DMSO [2, 7]: 1.2; Burkin Assay in Myoblasts, signal relative to DMSO ([3]; 0.5 uM): 0.6682; Burkin Assay in Myoblasts, signal relative to DMSO ([3]; 1 uM): 0.9153; Burkin Assay in Myoblasts, signal relative to DMSO ([3]; 5 uM): 0.9952; Burkin Assay in Myoblasts, signal relative to DMSO ([3]; 10 uM): 0.9282; Burkin Assay in Myoblasts, signal relative to DMSO ([3]; 20 uM): 0.8408; Burkin Assay in Myoblasts, signal relative to DMSO ([3]; 40 uM): 0.7704
7 | O=C(Nc1ccc(N2CCN(C(=O)c3ccccc3F)CC2)cc1)c1cncc(Br)c1 [MLS001060533-01] | 0.8358 | 0.7789 | 0.7716 | 0.6871 | 0.9464 | 1.208 | 1.318 | 1.52 | 1.342 | 1.117 | 0.9049 | 0.9915 | 1.033 | 1.101 | 1.397 | 1.22 | –
